Laboratory results published in patent US6355799B1, “Substituted benzene compounds, process for their preparation, and herbicidal and defoliant compositions containing them” (ISK Americas Incorporated, priority 1997, dated 2002).

Legend:
Type in all cases: in vivo
[1] = system: sicklepod (Cassia obtusifolia, CASOB); assay: Post-emerge test, greenhouse herbicide activity screening; conditions: post-emerge, 14 days after application, rating scale 0-100
In short: (§1)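 Compounds in acetone were track-sprayed at 15–1000 g ai/ha: pre-emergence onto soil sown the previous day, then top-watered to incorporate and later bottom-watered; post-emergence onto 2–3 leaf plants with 0.25% v/v surfactant, bottom-watered only. Ratings on a 0–100 phytotoxicity scale were taken at day 14.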

[2] = system: velvetleaf (Abutilon theophrasti, ABUTH); assay: as above; conditions: post-emerge, 14 days after application, rating scale 0-100
In short: as §1

[3] = system: green foxtail (Setaria viridis, SETVI); assay: as above; conditions: post-emerge, 14 days after application, rating scale 0-100
In short: as §1

[4] = system: johnsongrass (Sorghum halepense, SORHA); assay: as above; conditions: post-emerge, 14 days after application, rating scale 0-100
In short: as §1

[5] = system: ivyleaf morningglory (Ipomoea hederacea, IPOHE); assay: as above; conditions: post-emerge, 14 days after application, rating scale 0-100
In short: as §1

[6] = system: large crabgrass (Digitaria sanguinalis, DIGSA); assay: as above; conditions: post-emerge, 14 days after application, rating scale 0-100
In short: as §1

[7] = system: barnyardgrass (Echinochloa crus-galli, ECHCG); assay: as above; conditions: post-emerge, 14 days after application, rating scale 0-100
In short: as §1

[8] = system: lambsquarters (Chenopodium album, CHEAL); assay: as above; conditions: post-emerge, 14 days after application, rating scale 0-100
In short: as §1

[9] = system: redroot pigweed (Amaranthus retroflexus, AMARE); assay: as above; conditions: post-emerge, 14 days after application, rating scale 0-100
In short: as §1

[10] = system: redroot pigweed (Amaranthus retroflexus, AMARE); assay: Pre-emerge test, greenhouse herbicide activity screening; conditions: rated 14 days after application, 0 = no damage, 100 = complete death
In short: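 Herbicidal damage is scored 0 (none) to 100 (complete plant death) two weeks after a simulated field spray. Rates span 15–1000 g ai/ha, delivered in acetone at 187 l/ha. For post-emergence treatments, plants have 2–3 leaves and the spray carries 0.25% v/v non-ionic surfactant.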

[11] = system: field corn (Zea mays L., var. Dekalb 535, CORN); assay: Pre-emerge test, crop safety; conditions: rated 14 days after application, 0 = no damage, 100 = complete death
In short: (§2)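 Plants grown in 10 cm pots of sandy loam mix received acetone-dissolved compounds through a moving flat-fan nozzle. Doses ranged from 15 to 1000 g ai/ha. Pre-emerge pots were seeded one day earlier, post-emerge pots 8–21 days earlier. Fourteen days on, each pot was graded 0–100 for damage.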

[12] = system: upland rice (Oryza sp., var. Tebonnet, RICE); assay: Pre-emerge test, crop safety; conditions: rated 14 days after application, 0 = no damage, 100 = complete death
In short: as §2

[13] = system: sicklepod (Cassia obtusifolia, CASOB); assay: Pre-emerge test, greenhouse herbicide activity screening; conditions: rated 14 days after application, 0 = no damage, 100 = complete death
In short: (§3)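 Compounds in acetone were track-sprayed at 187 l/ha, 15–1000 g ai/ha, onto sandy loam pots. Pre-emerge seeds were sown one day before spraying, with surface watering afterwards. Post-emerge plants were at the 2–3 leaf stage and sprayed with 0.25% v/v non-ionic surfactant. Injury was rated 0–100 at 14 days.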

[14] = system: velvetleaf (Abutilon theophrasti, ABUTH); assay: as above; conditions: rated 14 days after application, 0 = no damage, 100 = complete death
In short: as §3

[15] = system: green foxtail (Setaria viridis, SETVI); assay: as above; conditions: rated 14 days after application, 0 = no damage, 100 = complete death
In short: as §3

[16] = system: johnsongrass (Sorghum halepense, SORHA); assay: as above; conditions: rated 14 days after application, 0 = no damage, 100 = complete death
In short: as §3

[17] = system: ivyleaf morningglory (Ipomoea hederacea, IPOHE); assay: as above; conditions: rated 14 days after application, 0 = no damage, 100 = complete death
In short: as §3

[18] = system: large crabgrass (Digitaria sanguinalis, DIGSA); assay: as above; conditions: rated 14 days after application, 0 = no damage, 100 = complete death
In short: as §3

[19] = system: barnyardgrass (Echinochloa crus-galli, ECHCG); assay: as above; conditions: rated 14 days after application, 0 = no damage, 100 = complete death
In short: as §3

[20] = system: lambsquarters (Chenopodium album, CHEAL); assay: as above; conditions: rated 14 days after application, 0 = no damage, 100 = complete death
In short: as §3

[21] = system: field corn (Zea mays L., var. Dekalb 535, CORN); assay: Post-emerge test, crop safety; conditions: post-emerge, 14 days after application, rating scale 0-100
In short: as §3

[22] = system: upland rice (Oryza sp., var. Tebonnet, RICE); assay: Post-emerge test, crop safety; conditions: post-emerge, 14 days after application, rating scale 0-100
In short: as §3

## COc1c(Cl)cc(F)c(-n2c(=O)cc(C(F)(F)F)n(C)c2=O)c1NC(=O)C=Cc1ccco1 [2-92]
[1]; 63 g ai/ha
  phytotoxicity rating CASOB: 0
[1]; 250 g ai/ha
  phytotoxicity rating CASOB: 30
[2]; 63 g ai/ha
  phytotoxicity rating ABUTH: 100
[2]; 250 g ai/ha
  phytotoxicity rating ABUTH: 100
[3]; 63 g ai/ha
  phytotoxicity rating SETVI: 0
[3]; 250 g ai/ha
  phytotoxicity rating SETVI: 0
[4]; 63 g ai/ha
  phytotoxicity rating SORHA: 0
[4]; 250 g ai/ha
  phytotoxicity rating SORHA: 0
[5]; 63 g ai/ha
  phytotoxicity rating IPOHE: 20
[5]; 250 g ai/ha
  phytotoxicity rating IPOHE: 100
[6]; 63 g ai/ha
  phytotoxicity rating DIGSA: 0
[6]; 250 g ai/ha
  phytotoxicity rating DIGSA: 0
[7]; 63 g ai/ha
  phytotoxicity rating ECHCG: 0
[7]; 250 g ai/ha
  phytotoxicity rating ECHCG: 0
[8]; 63 g ai/ha
  phytotoxicity rating CHEAL: 20
[8]; 250 g ai/ha
  phytotoxicity rating CHEAL: 80
[9]; 63 g ai/ha
  phytotoxicity rating AMARE: 20
[9]; 250 g ai/ha
  phytotoxicity rating AMARE: 50
[10]; 63 g ai/ha
  Pre-emerge Herbicidal Activity, phytotoxicity rating (0-100), AMARE: 50
[10]; 250 g ai/ha
  Pre-emerge Herbicidal Activity, phytotoxicity rating (0-100), AMARE: 100
[11]; 63 g ai/ha
  Pre-emerge phytotoxicity rating (0-100), crop damage, CORN: 0
[11]; 250 g ai/ha
  Pre-emerge phytotoxicity rating (0-100), crop damage, CORN: 20
[12]; 63 g ai/ha
  Pre-emerge phytotoxicity rating (0-100), crop damage, RICE: 0
[12]; 250 g ai/ha
  Pre-emerge phytotoxicity rating (0-100), crop damage, RICE: 10
[13]; 63 g ai/ha
  Pre-emerge Herbicidal Activity, phytotoxicity rating (0-100), CASOB: 40
[13]; 250 g ai/ha
  Pre-emerge Herbicidal Activity, phytotoxicity rating (0-100), CASOB: 100
[14]; 63 g ai/ha
  Pre-emerge Herbicidal Activity, phytotoxicity rating (0-100), ABUTH: 100
[14]; 250 g ai/ha
  Pre-emerge Herbicidal Activity, phytotoxicity rating (0-100), ABUTH: 100
[15]; 63 g ai/ha
  Pre-emerge Herbicidal Activity, phytotoxicity rating (0-100), SETVI: 30
[15]; 250 g ai/ha
  Pre-emerge Herbicidal Activity, phytotoxicity rating (0-100), SETVI: 90
[16]; 63 g ai/ha
  Pre-emerge Herbicidal Activity, phytotoxicity rating (0-100), SORHA: 0
[16]; 250 g ai/ha
  Pre-emerge Herbicidal Activity, phytotoxicity rating (0-100), SORHA: 40
[17]; 63 g ai/ha
  Pre-emerge Herbicidal Activity, phytotoxicity rating (0-100), IPOHE: 30
[17]; 250 g ai/ha
  Pre-emerge Herbicidal Activity, phytotoxicity rating (0-100), IPOHE: 100
[18]; 63 g ai/ha
  Pre-emerge Herbicidal Activity, phytotoxicity rating (0-100), DIGSA: 0
[18]; 250 g ai/ha
  Pre-emerge Herbicidal Activity, phytotoxicity rating (0-100), DIGSA: 20
[19]; 63 g ai/ha
  Pre-emerge Herbicidal Activity, phytotoxicity rating (0-100), ECHCG: 0
[19]; 250 g ai/ha
  Pre-emerge Herbicidal Activity, phytotoxicity rating (0-100), ECHCG: 20
[20]; 63 g ai/ha
  Pre-emerge Herbicidal Activity, phytotoxicity rating (0-100), CHEAL: 100
[20]; 250 g ai/ha
  Pre-emerge Herbicidal Activity, phytotoxicity rating (0-100), CHEAL: 100
[21]; 63 g ai/ha
  phytotoxicity rating CORN: 0
[21]; 250 g ai/ha
  phytotoxicity rating CORN: 30
[22]; 63 g ai/ha
  phytotoxicity rating RICE: 10
[22]; 250 g ai/ha
  phytotoxicity rating RICE: 60

## Cn1c(C(F)(F)F)cc(=O)n(-c2c(F)cc(Cl)c(O)c2NC(=O)c2ncccn2)c1=O [2-102]
[1]; 63 g ai/ha
  phytotoxicity rating CASOB: 0
[1]; 250 g ai/ha
  phytotoxicity rating CASOB: 0
[2]; 63 g ai/ha
  phytotoxicity rating ABUTH: 0
[2]; 250 g ai/ha
  phytotoxicity rating ABUTH: 30
[3]; 63 g ai/ha
  phytotoxicity rating SETVI: 0
[3]; 250 g ai/ha
  phytotoxicity rating SETVI: 0
[4]; 63 g ai/ha
  phytotoxicity rating SORHA: 0
[4]; 250 g ai/ha
  phytotoxicity rating SORHA: 0
[5]; 63 g ai/ha
  phytotoxicity rating IPOHE: 0
[5]; 250 g ai/ha
  phytotoxicity rating IPOHE: 0
[6]; 63 g ai/ha
  phytotoxicity rating DIGSA: 0
[6]; 250 g ai/ha
  phytotoxicity rating DIGSA: 0
[7]; 63 g ai/ha
  phytotoxicity rating ECHCG: 0
[7]; 250 g ai/ha
  phytotoxicity rating ECHCG: 0
[8]; 63 g ai/ha
  phytotoxicity rating CHEAL: 0
[8]; 250 g ai/ha
  phytotoxicity rating CHEAL: 0
[9]; 63 g ai/ha
  phytotoxicity rating AMARE: 0
[9]; 250 g ai/ha
  phytotoxicity rating AMARE: 40
[10]; 63 g ai/ha
  Pre-emerge Herbicidal Activity, phytotoxicity rating (0-100), AMARE: 30
[10]; 250 g ai/ha
  Pre-emerge Herbicidal Activity, phytotoxicity rating (0-100), AMARE: 0
[11]; 63 g ai/ha
  Pre-emerge phytotoxicity rating (0-100), crop damage, CORN: 0
[11]; 250 g ai/ha
  Pre-emerge phytotoxicity rating (0-100), crop damage, CORN: 0
[12]; 63 g ai/ha
  Pre-emerge phytotoxicity rating (0-100), crop damage, RICE: 0
[12]; 250 g ai/ha
  Pre-emerge phytotoxicity rating (0-100), crop damage, RICE: 0
[13]; 63 g ai/ha
  Pre-emerge Herbicidal Activity, phytotoxicity rating (0-100), CASOB: 0
[13]; 250 g ai/ha
  Pre-emerge Herbicidal Activity, phytotoxicity rating (0-100), CASOB: 0
[14]; 63 g ai/ha
  Pre-emerge Herbicidal Activity, phytotoxicity rating (0-100), ABUTH: 0
[14]; 250 g ai/ha
  Pre-emerge Herbicidal Activity, phytotoxicity rating (0-100), ABUTH: 0
[15]; 63 g ai/ha
  Pre-emerge Herbicidal Activity, phytotoxicity rating (0-100), SETVI: 0
[15]; 250 g ai/ha
  Pre-emerge Herbicidal Activity, phytotoxicity rating (0-100), SETVI: 0
[16]; 63 g ai/ha
  Pre-emerge Herbicidal Activity, phytotoxicity rating (0-100), SORHA: 0
[16]; 250 g ai/ha
  Pre-emerge Herbicidal Activity, phytotoxicity rating (0-100), SORHA: 0
[17]; 63 g ai/ha
  Pre-emerge Herbicidal Activity, phytotoxicity rating (0-100), IPOHE: 0
[17]; 250 g ai/ha
  Pre-emerge Herbicidal Activity, phytotoxicity rating (0-100), IPOHE: 0
[18]; 63 g ai/ha
  Pre-emerge Herbicidal Activity, phytotoxicity rating (0-100), DIGSA: 0
[18]; 250 g ai/ha
  Pre-emerge Herbicidal Activity, phytotoxicity rating (0-100), DIGSA: 0
[19]; 63 g ai/ha
  Pre-emerge Herbicidal Activity, phytotoxicity rating (0-100), ECHCG: 0
[19]; 250 g ai/ha
  Pre-emerge Herbicidal Activity, phytotoxicity rating (0-100), ECHCG: 0
[20]; 63 g ai/ha
  Pre-emerge Herbicidal Activity, phytotoxicity rating (0-100), CHEAL: 0
[20]; 250 g ai/ha
  Pre-emerge Herbicidal Activity, phytotoxicity rating (0-100), CHEAL: 0
[21]; 63 g ai/ha
  phytotoxicity rating CORN: 0
[21]; 250 g ai/ha
  phytotoxicity rating CORN: 0
[22]; 63 g ai/ha
  phytotoxicity rating RICE: 0
[22]; 250 g ai/ha
  phytotoxicity rating RICE: 0
